# Measured values reported in patent publication US6274715A, “Tricyclic erythromycin derivatives” (priority 1997, dated 2001).
# Experiments:
# Assay type in all cases: cell-based
# [1] = system: KLEBSIELLA PNEUMONIAE ATCC 8045; assay: In vitro antibacterial activity, MIC, BHI agar dilution; settings: K. pneumoniae ATCC 8045, unit assumed
# PSEUDOMONAS CEPACIA 296I = assay: as above; settings: P. cepacia 296I, unit assumed
# [2] = system: PROVIDENCIA STUARTII CMX 640; settings: P. stuartii CMX 640; BHI agar; unit assumed
# [3] = system: PSEUDOMONAS AERUGINOSA K799/WT; assay: In vitro antibacterial activity, MIC, BHI agar dilution; settings: P. aeruginosa K799/WT, unit assumed
# [4] = system: STREPTOCOCCUS PYOGENES EES61; assay: as above; settings: S. pyogenes EES61, unit assumed
# [5] = system: STREPTOCOCCUS PYOGENES 930; assay: as above; settings: S. pyogenes 930, unit assumed
# ESCHERICHIA COLI KNK 437 = settings: E. coli KNK 437; BHI agar; unit assumed
# [6] = system: STAPHYLOCOCCUS AUREUS NCTC10649M; assay: In vitro antibacterial activity, MIC, BHI agar dilution; settings: S. aureus NCTC10649M, unit assumed
# [7] = system: PSEUDOMONAS AERUGINOSA 5007; assay: as above; settings: P. aeruginosa 5007, unit assumed
# ESCHERICHIA COLI H560 = assay: as above; settings: E. coli H560, unit assumed
# ESCHERICHIA COLI SS = assay: as above; settings: E. coli SS, unit assumed
# [8] = system: MYCOBACTERIUM SMEGMATIS ATCC 114; assay: as above; settings: M. smegmatis ATCC 114, unit assumed
# [9] = system: STAPHYLOCOCCUS AUREUS CMX 642A; assay: as above; settings: S. aureus CMX 642A, unit assumed
# M[…] ATCC 9341 = assay: as above; settings: M. luteus ATCC 9341, unit assumed
# In short: (§1)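 Agar dilution in BHI: plates inoculated with 1:100 dilutions of organisms (1:10 for Micrococcus and Streptococcus), incubated 20-24 h at 35-37° C, then inspected for the lowest inhibitory concentration against a drug-free growth control.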
# EN[…] ATCC 8043 = assay: as above; settings: E. faecium ATCC 8043, unit assumed
# In short: as §1
# STR[…] 508 = assay: as above; settings: S. agalactiae CMX 508, unit assumed
# In short: as §1
# M[…] ATCC 4698 = assay: as above; settings: M. luteus ATCC 4698, unit assumed
# In short: as §1
# [10] = system: STAPHYLOCOCCUS AUREUS A-5278; assay: as above; settings: S. aureus A-5278, unit assumed
# [11] = system: PSEUDOMONAS AERUGINOSA BMH10; assay: as above; settings: P. aeruginosa BMH10, unit assumed
# CANDIDA ALBICANS CCH 442 = assay: as above; settings: C. albicans CCH 442, unit assumed
# [12] = system: ENTEROBACTER AEROGENES ATCC 13048; assay: as above; settings: E. aerogenes ATCC 13048, unit assumed
# [13] = system: STAPHYLOCOCCUS EPIDERMIDIS 3519; settings: S. epidermidis 3519; BHI agar; unit assumed
# [14] = system: STAPHYLOCOCCUS AUREUS CMX 553; assay: In vitro antibacterial activity, MIC, BHI agar dilution; settings: S. aureus CMX 553, unit assumed
# [15] = system: STREPTOCOCCUS BOVIS A-5169; assay: as above; settings: S. bovis A-5169, unit assumed
# ESCHERICHIA COLI JUHL = settings: E. coli JUHL; BHI agar; unit assumed
# [16] = system: STAPHYLOCOCCUS AUREUS A5177; assay: In vitro antibacterial activity, MIC, BHI agar dilution
# [17] = system: ACINETOBACTER CALCOACETICUS CMX 669; assay: as above; settings: A. calcoaceticus CMX 669, unit assumed
# [18] = system: PSEUDOMONAS AERUGINOSA DPHD-5263; assay: as above; settings: P. aeruginosa DPHD-5263, unit assumed
# [19] = system: PSEUDOMONAS AERUGINOSA K799/61; assay: as above; settings: P. aeruginosa K799/61, unit assumed
# [20] = system: STAPHYLOCOCCUS AUREUS ATCC 6538P; assay: as above; settings: S. aureus ATCC 6538P, 35-37° C., 20 to 24 hours, unit assumed
# [21] = system: STAPHYLOCOCCUS AUREUS 1775; assay: as above; settings: S. aureus 1775, unit assumed
# [22] = system: PSEUDOMONAS AERUGINOSA DPHD-2862; assay: as above; settings: P. aeruginosa DPHD-2862, unit assumed
# ESCHERICHIA COLI DC-2 = assay: as above; settings: E. coli DC-2, unit assumed
Structure (SMILES),MIC [1],MIC (PSEUDOMONAS CEPACIA 296I),MIC [2],MIC [3],MIC [4],MIC [5],MIC (ESCHERICHIA COLI KNK 437),MIC [6],MIC [7],MIC (ESCHERICHIA COLI H560),MIC (ESCHERICHIA COLI SS),MIC [8],MIC [9],MIC (M[…] ATCC 9341),MIC (EN[…] ATCC 8043),MIC (STR[…] 508),MIC (M[…] ATCC 4698),MIC [10],MIC [11],MIC (CANDIDA ALBICANS CCH 442),further results
CCC1OC(=O)C(C)C(=O)C(C)C(OC2OC(C)CC(N(C)C)C2O)C(C)(OC)CC(C)C2=NC(CN)CN3C(=O)OC1(C)C3C2C (stereo not drawn) [Example 16],12.5 µg/mL,> 100 µg/mL,> 100 µg/mL,100 µg/mL,0.01 µg/mL,> 100 µg/mL,12.5 µg/mL,0.2 µg/mL,> 100 µg/mL,6.2 µg/mL,0.1 µg/mL,1.56 µg/mL,0.2 µg/mL,0.02 µg/mL,0.2 µg/mL,0.05 µg/mL,0.2 µg/mL,> 100 µg/mL,50 µg/mL,> 100 µg/mL,"MIC [12]: 12.5 µg/mL; MIC [13]: 0.2 µg/mL; MIC [14]: 0.39 µg/mL; MIC [15]: 0.02 µg/mL; MIC (ESCHERICHIA COLI JUHL): 12.5 µg/mL; MIC ([16]; S. aureus A5177, unit assumed): 0.39 µg/mL; MIC [17]: 12.5 µg/mL; MIC [18]: > 100 µg/mL; MIC [19]: 0.39 µg/mL; MIC [20]: 0.2 µg/mL; MIC [21]: > 100 µg/mL; MIC [22]: > 100 µg/mL; MIC (ESCHERICHIA COLI DC-2): 12.5 µg/mL"
CC[C@H]1OC(=O)[C@H](C)C(=O)[C@H](C)[C@@H](O[C@@H]2O[C@H](C)C[C@H](N(C)C)[C@H]2O)[C@](C)(OC)C[C@@H](C)C2=N[C@H](COCc3ccc(C#N)cc3)CN3C(=O)O[C@@]1(C)[C@H]3[C@H]2C [Example 74],> 100 µg/mL,50 µg/mL,> 100 µg/mL,100 µg/mL,≤ 0.005 µg/mL,> 100 µg/mL,> 100 µg/mL,0.1 µg/mL,> 100 µg/mL,100 µg/mL,0.39 µg/mL,0.39 µg/mL,0.2 µg/mL,0.02 µg/mL,0.02 µg/mL,0.02 µg/mL,0.39 µg/mL,> 100 µg/mL,> 100 µg/mL,> 100 µg/mL,MIC [12]: > 100 µg/mL; MIC [13]: 0.2 µg/mL; MIC [14]: 0.1 µg/mL; MIC [15]: ≤ 0.005 µg/mL; MIC (ESCHERICHIA COLI JUHL): > 100 µg/mL; MIC ([16]; S. aureus A5177): 0.1 µg/mL; MIC [17]: 50 µg/mL; MIC [18]: > 100 µg/mL; MIC [19]: 3.1 µg/mL; MIC [20]: 0.2 µg/mL; MIC [21]: > 100 µg/mL; MIC [22]: > 100 µg/mL; MIC (ESCHERICHIA COLI DC-2): 100 µg/mL
